# Legend:
# AZD6738 = compound: C[C@@H]1COCCN1C2=NC(=NC(=C2)C3(CC3)[S@](=N)(=O)C)C4=C5C=CNC5=NC=C4 [AZD6738]; conditions: max 10 µM
# In short: (§1)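 Following 24 hours at 37°C and 5% CO2, cancer cell lines in 1536-well plates with 7.5 μl DMEM/F12 or RPMI and 10% FBS were dosed for 72 hours, final DMSO typically being 0.2%. CellTiter-Glo 2.0 luminescence, scaled between blank-well and DMSO-well means, gave the viability readout. Dose responses were fitted to a two-parameter logistic curve with a non-linear mixed effects model, and the single-agent IC50 was derived from this fit.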
# AZD1390 = compound: CC(C)n1c(=O)n(C)c2cnc3cc(F)c(-c4ccc(OCCCN5CCCCC5)nc4)cc3c21 [AZD1390]; conditions: max 0.3 µM
# In short: as §1
# Trametinib = compound: CC(=O)Nc1cccc(-n2c(=O)n(C3CC3)c(=O)c3c(Nc4ccc(I)cc4F)n(C)c(=O)c(C)c32)c1 [Trametinib]; conditions: max 1 µM
# In short: as §1
# Carboplatin = compound: C1CC(C1)(C(=O)[O-])C(=O)[O-].N.N.[Pt+2] [Carboplatin]; conditions: max 10 µM
# In short: as §1
# Crizotinib = compound: C[C@@H](Oc1cc(-c2cnn(C3CCNCC3)c2)cnc1N)c1c(Cl)ccc(F)c1Cl [Crizotinib]; conditions: max 10 µM
# In short: as §1
# AZD2811 = compound: CCN(CCO)CCCOc1ccc2c(Nc3cc(CC(=O)Nc4cccc(F)c4)[nH]n3)ncnc2c1 [AZD2811]; conditions: max 1 µM
# In short: as §1
# Etoposide = compound: COc1cc([C@@H]2c3cc4c(cc3[C@@H](O[C@@H]3O[C@@H]5CO[C@@H](C)O[C@H]5[C@H](O)[C@H]3O)[C@H]3COC(=O)[C@H]23)OCO4)cc(OC)c1O [Etoposide]; conditions: max 10 µM
# In short: as §1
# Doxorubicin = compound: COc1cccc2c1C(=O)c1c(O)c3c(c(O)c1C2=O)C[C@@](O)(C(=O)CO)C[C@@H]3O[C@H]1C[C@H](N)[C@H](O)[C@H](C)O1 [Doxorubicin]; conditions: max 1 µM
# In short: as §1
# AZD1775 = compound: C=CCn1c(=O)c2cnc(Nc3ccc(N4CCN(C)CC4)cc3)nc2n1-c1cccc(C(C)(C)O)n1 [AZD1775]; conditions: max 3 µM
# In short: as §1
# Dasatinib = compound: CC1=C(C(=CC=C1)Cl)NC(=O)C2=CN=C(S2)NC3=CC(=NC(=N3)C)N4CCN(CC4)CCO [Dasatinib]; conditions: max 2 µM
# In short: as §1
# Gemcitabine = compound: Nc1ccn([C@@H]2O[C@H](CO)[C@@H](O)C2(F)F)c(=O)n1 [Gemcitabine]; conditions: max 0.3 µM
# In short: as §1
# AZD7648 = compound: Cc1cc2ncnn2cc1Nc1ncc2c(n1)n(C1CCOCC1)c(=O)n2C [AZD7648]; conditions: max 10 µM
# In short: as §1
# 5-Fluorouracil = compound: O=c1[nH]cc(F)c(=O)[nH]1 [5-Fluorouracil]; conditions: max 20 µM
# In short: as §1
# AZD0156 = compound: CN(C)CCCOc1ccc(-c2ccc3ncc4c(c3c2)n(C2CCOCC2)c(=O)n4C)cn1 [AZD0156]; conditions: max 3 µM
# In short: as §1
# Prexasertib = compound: COc1cccc(OCCCN)c1-c1cc(Nc2cnc(C#N)cn2)n[nH]1 [Prexasertib]; conditions: max 1 µM
# In short: as §1
# SRA737 = compound: N#Cc1cnc(Nc2cc(NC[C@H]3CNCCO3)c(C(F)(F)F)cn2)cn1 [SRA737]; conditions: max 10 µM
# In short: as §1
# AZD5153 = compound: COc1nnc2ccc(N3CCC(c4ccc(OCCN5CCN(C)C(=O)[C@H]5C)cc4)CC3)nn12 [AZD5153]; conditions: max 1 µM
# In short: as §1
# Palbociclib = compound: CC(=O)c1c(C)c2cnc(Nc3ccc(N4CCNCC4)cn3)nc2n(C2CCCC2)c1=O [Palbociclib]; conditions: max 10 µM
# In short: as §1
# Taselisib = compound: Cc1nc(-c2cn3c(n2)-c2ccc(-c4cnn(C(C)(C)C(N)=O)c4)cc2OCC3)n(C(C)C)n1 [Taselisib]; conditions: max 10 µM
# In short: as §1
# Gefitinib = compound: COc1cc2ncnc(Nc3ccc(F)c(Cl)c3)c2cc1OCCCN1CCOCC1 [Gefitinib]; conditions: max 10 µM
# In short: as §1
# [1] = compound: O=C(Nc1ccc2[nH]nc(-c3ccncc3)c2c1)[C@@H]1CCN(CC(=O)N2CCN(c3ccc(-c4ncccn4)cc3)CC2)C1; conditions: max 5 µM
# In short: as §1
# Savolitinib = compound: C[C@@H](c1ccc2nccn2c1)n1nnc2ncc(-c3cnn(C)c3)nc21 [Savolitinib]; conditions: max 1 µM
# In short: as §1
# Selumetinib = compound: Cn1cnc2c(F)c(Nc3ccc(Br)cc3Cl)c(C(=O)NOCCO)cc21 [Selumetinib]; conditions: max 10 µM
# In short: as §1
# AZD5991 = compound: Cc1c2c(nn1C)CSCc1cc(n(C)n1)CSc1cc(c3ccccc3c1)OCCCc1c(C(=O)O)n(C)c3c-2c(Cl)ccc13 [AZD5991]; conditions: max 1 µM
# In short: as §1
# MK-2206 = compound: NC1(c2ccc(-c3nc4ccn5c(=O)[nH]nc5c4cc3-c3ccccc3)cc2)CCC1 [MK-2206]; conditions: max 10 µM
# In short: as §1
# Venetoclax = compound: CC1(C)CCC(CN2CCN(c3ccc(C(=O)NS(=O)(=O)c4ccc(NCC5CCOCC5)c([N+](=O)[O-])c4)c(Oc4cnc5[nH]ccc5c4)c3)CC2)=C(c2ccc(Cl)cc2)C1 [Venetoclax]; conditions: max 1 µM
# In short: as §1
# Olaparib = compound: O=C(c1cc(Cc2n[nH]c(=O)c3ccccc23)ccc1F)N1CCN(C(=O)C2CC2)CC1 [Olaparib]; conditions: max 10 µM
# In short: as §1
# SG3199 = compound: CC1=CN2[C@@H](C1)C=NC3=CC(=C(C=C3C2=O)OC)OCCCCCOC4=C(C=C5C(=C4)N=C[C@@H]6CC(=CN6C5=O)C)OC [SG3199]; conditions: max 0.001 µM
# In short: as §1
# Lapatinib = compound: CS(=O)(=O)CCNCc1ccc(-c2ccc3ncnc(Nc4ccc(OCc5cccc(F)c5)c(Cl)c4)c3c2)o1 [Lapatinib]; conditions: max 10 µM
# In short: as §1
# SN-38 = compound: CCc1c2c(nc3ccc(O)cc13)-c1cc3c(c(=O)n1C2)COC(=O)[C@]3(O)CC [SN-38]; conditions: max 0.3 µM
# In short: as §1
# AZD4320 = compound: CN(CC[C@H](CSC1=CC=CC=C1)NC2=C(C=C(C=C2)S(=O)(=O)NC(=O)C3=CC=C(C=C3)N4CCC(CC4)[C@H](C5=CC=CC=C5C6=CC=C(C=C6)Cl)O)S(=O)(=O)C(F)(F)F)CCO [AZD4320]; conditions: max 1 µM
# In short: as §1
# AZD8186 = compound: C[C@@H](Nc1cc(F)cc(F)c1)c1cc(C(=O)N(C)C)cc2c(=O)cc(N3CCOCC3)oc12 [AZD8186]; conditions: max 10 µM
# In short: as §1
# AZD5363 = compound: C1CN(CCC1(C(=O)N[C@@H](CCO)C2=CC=C(C=C2)Cl)N)C3=NC=NC4=C3C=CN4 [AZD5363]; conditions: max 10 µM
# In short: as §1
# Alisertib = compound: COc1cc(Nc2ncc3c(n2)-c2ccc(Cl)cc2C(c2c(F)cccc2OC)=NC3)ccc1C(=O)O [Alisertib]; conditions: max 10 µM
# In short: as §1
# Paclitaxel = compound: CC(=O)O[C@H]1C(=O)[C@@]2(C)[C@H]([C@H](OC(=O)c3ccccc3)[C@]3(O)C[C@H](OC(=O)[C@H](O)[C@@H](NC(=O)c4ccccc4)c4ccccc4)C(C)=C1C3(C)C)[C@]1(OC(C)=O)CO[C@@H]1C[C@@H]2O [Paclitaxel]; conditions: max 3 µM
# In short: as §1
Cell Line,"IC50, cell viability 72 h (AZD6738) [nM]","IC50, cell viability 72 h (AZD1390) [nM]","IC50, cell viability 72 h (Trametinib) [nM]","IC50, cell viability 72 h (Carboplatin) [nM]","IC50, cell viability 72 h (Crizotinib) [nM]","IC50, cell viability 72 h (AZD2811) [nM]","IC50, cell viability 72 h (Etoposide) [nM]","IC50, cell viability 72 h (Doxorubicin) [nM]","IC50, cell viability 72 h (AZD1775) [nM]","IC50, cell viability 72 h (Dasatinib) [nM]","IC50, cell viability 72 h (Gemcitabine) [nM]","IC50, cell viability 72 h (AZD7648) [nM]","IC50, cell viability 72 h (5-Fluorouracil) [nM]","IC50, cell viability 72 h (AZD0156) [nM]","IC50, cell viability 72 h (Prexasertib) [nM]","IC50, cell viability 72 h (SRA737) [nM]","IC50, cell viability 72 h (AZD5153) [nM]","IC50, cell viability 72 h (Palbociclib) [nM]","IC50, cell viability 72 h (Taselisib) [nM]","IC50, cell viability 72 h (Gefitinib) [nM]","IC50, cell viability 72 h [1] [nM]","IC50, cell viability 72 h (Savolitinib) [nM]","IC50, cell viability 72 h (Selumetinib) [nM]","IC50, cell viability 72 h (AZD5991) [nM]","IC50, cell viability 72 h (MK-2206) [nM]","IC50, cell viability 72 h (Venetoclax) [nM]","IC50, cell viability 72 h (Olaparib) [nM]","IC50, cell viability 72 h (SG3199) [nM]","IC50, cell viability 72 h (Lapatinib) [nM]","IC50, cell viability 72 h (SN-38) [nM]","IC50, cell viability 72 h (AZD4320) [nM]","IC50, cell viability 72 h (AZD8186) [nM]","IC50, cell viability 72 h (AZD5363) [nM]","IC50, cell viability 72 h (Alisertib) [nM]","IC50, cell viability 72 h (Paclitaxel) [nM]"
MSTO-211H (Mesothelioma),7720,> 300,874,> 10000,> 10000,> 1000,9060,857,> 3000,> 2000,21.9,> 10000,> 20000,> 3000,54.4,> 10000,> 1000,> 10000,> 10000,> 10000,> 5000,> 1000,> 10000,> 1000,> 10000,> 1000,> 10000,> 1,> 10000,47,> 1000,> 10000,> 10000,3840,2950
MEG-01 (Chronic Myelogenous Leukemia),812,> 300,38.9,> 10000,828,776,4890,540,292,< 2,51.4,> 10000,> 20000,> 3000,8.09,1180,83.2,> 10000,> 10000,> 10000,1220,> 1000,3410,> 1000,> 10000,> 1000,> 10000,> 1,> 10000,74.4,309,> 10000,> 10000,3120,158
Saos-2 (Osteosarcoma),> 10000,> 300,> 1000,> 10000,5110,971,3650,556,1230,> 2000,36.4,> 10000,> 20000,> 3000,102,> 10000,887,> 10000,3210,> 10000,> 5000,> 1000,> 10000,> 1000,> 10000,> 1000,> 10000,> 1,> 10000,10.9,> 1000,> 10000,> 10000,9260,44.6
